Source: PMC11714206, “Massively Parallel Screening of Toll/Interleukin‐1 Receptor (TIR)‐Derived Peptides Reveals Multiple Toll‐Like Receptors (TLRs)‐Targeting Immunomodulatory Peptides” (Advanced Science, 2024)
Values joined by “and” are separate entries in the source; they are usually repeats but may differ in a detail not shown here. Equal values may be shown once.

Molecular target: T1, MAL^TIR (Homo sapiens, UniProt P58753)
T1 construct: MAL (residues 79–221); 6xHis; made in house; host or cells: E. coli BL21 (DE3)
T1 sequence (P58753 79-221): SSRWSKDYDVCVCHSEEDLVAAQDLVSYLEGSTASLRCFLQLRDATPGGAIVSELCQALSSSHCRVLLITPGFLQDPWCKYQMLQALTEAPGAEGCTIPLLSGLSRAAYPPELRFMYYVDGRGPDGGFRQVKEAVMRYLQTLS
Experiment: T‐Surf phage library (P8 and P3) selection against MAL^TIR, four rounds, NGS read counts
Type: binding
Settings: for P3_MAL Rank (after) / P3_MAL Rank (before): P3 library; for Population: 4th round of selection against MAL TIR, share of NGS reads; for P8_MAL Rank (after) / P8_MAL Rank (before): P8 library
Method: T‐Surf libraries were screened against the immobilized TIR domains of two major human TLR adaptor proteins, MAL^TIR and MyD88^TIR, allowing cross‐species selection of TIR‐binding motifs with 190 946 TIR‐derived peptides in a single binding assay (Scheme 1). Enriched phage pools from the fourth round of selection were analyzed using NGS after barcoding the peptide‐coding regions of the phage pools.
Phage display screening was performed by coating two wells of a 96‐well plate (Maxisorp, Thermo Fisher Scientific) with 100 µL of 5 µg mL^−1 TIR domains overnight; then, the coated wells were blocked with 200 µL of blocking buffer (0.2% BSA in PBS) and set aside for 1 h at 4 °C with gentle shaking. Next, 100 µL of the phage library was added to the wells and incubated for 1 h at room temperature (RT; 20 – 22 °C) with gentle shaking. The plate was washed four times with PBS containing 0.5% Tween‐20; the bound phages were eluted by adding 100 µL of 100 mM HCl to each well. The elute was neutralized with 10 µL of 1.0 M Tris‐HCl (pH 11.0). E. coli TG1 cells were grown to the log phase (A600 = ≈0.6), and 1 mL of the culture was incubated with 100 µL of the eluted phages for 30 min at 37 °C, with shaking at 200 rpm. Next, 1 µL of M13KO7 helper phages was added, followed by incubation for 45 min at 37 °C, with shaking. Subsequently, the cells were transferred to 25 mL of 2× yeast extract tryptone/carbenicillin/kanamycin medium and incubated overnight at 37 °C with shaking at 200 rpm. The amplified phages were precipitated with 20% PEG‐8000/2.5 M NaCl to be used for the next round of selection.
The naïve T‐Surf libraries in P8 and P3 and the enriched phage pools after four rounds were barcoded for NGS as previously described.^[ [59] ^] Briefly, 5 µL of the phage pool was used as a template for 20 cycles of a 50 µL PCR reaction using […] each of forward and reverse barcoded primers and PrimeSTAR Max DNA Polymerase. The PCR products were purified using Expin Gel SV (GeneAll). The NGS samples were quantified using qPCR, following the qPCR Quantification Protocol Guide (KAPA Library Quantification kits for Illumina Sequencing Platform), and qualified using the TapeStation High Sensitivity D1000 ScreenTape (Agilent Technologies). The indexed libraries were further sequenced by Macrogen (Seoul, Republic of Korea) using the NovaSeq platform (Illumina) with 100 bp paired‐end reads. The reads were demultiplexed by barcodes and filtered for an average Phred quality score of at least 30, followed by trimming the flanking consensus sequences using Cutadapt (version 2.3). Peptide sequence populations were analyzed according to the read counts.

[1] = selection against MAL, rank after grouping
[2] = selection against MAL, rank before grouping
[3] = P8_MAL: rank by count after grouping
[4] = P8_MAL: rank by count before grouping
[5] = selection against MAL TIR, rank by count after grouping
[6] = selection against MAL TIR, rank by count before grouping
[7] = 4R selection against MAL, rank after grouping
[8] = 4R selection against MAL, rank before grouping
[9] = selection against MAL, rank by count after grouping
[10] = selection against MAL, rank by count before grouping
[11] = P3_MAL: rank by count after grouping
[12] = P3_MAL: rank by count before grouping

NQWSNELTAAANLRGW was tested, and the “P3_MAL Rank (after)” value [1] was 575 and the “P3_MAL Rank (before)” value [2] was 3420.

For TFLGHLHNALVQAGNH, the “Rank (after)” value [3] was 432 and the “Rank (before)” value [4] was 2608.

NQWRNALTAAANLSDR was tested, and the “P3_MAL Rank (after)” value [5] was 282 and the “P3_MAL Rank (before)” value [6] was 3379.

FMSHLYRYLVQRGV was tested, and the “P3_MAL Rank (after)” value [1] was 546 and the “P3_MAL Rank (before)” value [2] was 1200.

A Population (P3_MAL pool: P3 T-Surf phage library) of 0.00526% was found for PNLRTKVLNYLMRNKT in this work.

For RNFGNSCVPCWANRR, the “Rank (after)” value [3] was 392 and the “Rank (before)” value [4] was 2239.

With YFLHFLLYDHLRWLGIRAFL the “P8_MAL Rank (after)” value [1] was 572 and the “P8_MAL Rank (before)” value [2] was 1498.

With RDFVAYLCQALANKGI the “P8_MAL Rank (after)” value [7] was 626 and the “P8_MAL Rank (before)” value [8] was 2172.

WLYERLVSLILRDTKV was tested, and the Population (P8_MAL pool: P8 T-Surf phage library) was 0.00402% and 0.00371%.

LFYERLVSLMLRDTKG was tested, and the “P8_MAL Rank (after)” value [5] was 274 and the “P8_MAL Rank (before)” value [6] was 1105.

In the case of LFFWEHLKQLLRNDGR, the “P8_MAL Rank (after)” value [1] is reported as 513 and the “P8_MAL Rank (before)” value [2] is reported as 2073.

For YAARANSGFHTFRDND, the “P3_MAL Rank (after)” value [9] was 740 and the “P3_MAL Rank (before)” value [10] was 1489.

With NSFRERLRHLMAHSKM the “P3_MAL Rank (after)” value [7] was 620 and the “P3_MAL Rank (before)” value [8] was 3479.

RGFLSHLRHHLPAKEH was tested, and the “P3_MAL Rank (after)” value [5] was 275 and the “P3_MAL Rank (before)” value [6] was 2395.

For SSFREGLWRPPELSEK, the “P3_MAL Rank (after)” value [9] was 748 and the “P3_MAL Rank (before)” value [10] was 3167.

With RGFLSHLRQHLKAKDH the “P3_MAL Rank (after)” value [1] was 497 and the “P3_MAL Rank (before)” value [2] was 2386.

For ALLYPFLINLTHPTHF, the “P8_MAL Rank (after)” value [1] was 522 and the “P8_MAL Rank (before)” value [2] was 1957.

For AVLYTFLINLTHPTKF, the “Rank (after)” value [3] was 460 and the “Rank (before)” value [4] was 1954.

In the case of YAFTSHLHHALRLNKIETF, the “P3_MAL Rank (after)” value [9] is reported as 711 and the “P3_MAL Rank (before)” value [10] is reported as 1475.

SNLREGLWGLLELSKK was tested, and the “P3_MAL Rank (after)” value [9] was 684 and the “P3_MAL Rank (before)” value [10] was 3216.

For YFLHFLLFSRLDTVYI, the “Rank (after)” value [3] was 464 and the “Rank (before)” value [4] was 1504.

With NQWRNALTAAAHLSGL the “Rank (after)” value [11] was 157 and the “Rank (before)” value [12] was 3362.

With WFYERPVSLILRDTIV the “Rank (after)” value [3] was 153 and the “Rank (before)” value [4] was 1256.

With RLLKWKEALKQRAL the “P3_MAL Rank (after)” value [1] was 518 and the “P3_MAL Rank (before)” value [2] was 2525.

KNLFNELVRKNLRTFM was tested, and the “Rank (after)” value [11] was 458 and the “Rank (before)” value [12] was 3753.

With DSHSSRFKEDAELGGQ the “P3_MAL Rank (after)” value [9] was 687 and the “P3_MAL Rank (before)” value [10] was 1963.

NQRRNAVTAAAKLSGC was tested, and the “Rank (after)” value [11] was 469 and the “Rank (before)” value [12] was 3476.

In the case of FLNWPRNPKEHRHFWH, the “P3_MAL Rank (after)” value [5] is reported as 241 and the “P3_MAL Rank (before)” value [6] is reported as 1181.

For YAFTGHLRRYLLRRSV, the “Rank (after)” value [11] was 439 and the “Rank (before)” value [12] was 1372.

With WFYESLVSLLTRDTKV the “P8_MAL Rank (after)” value [1] was 547 and the “P8_MAL Rank (before)” value [2] was 1298.

With LFFWESLKNVLGSDGR the “Rank (after)” value [3] was 431 and the “Rank (before)” value [4] was 2115.

YAFTGHLHRYLMPRGV was tested, and the “P3_MAL Rank (after)” value [9] was 698 and the “P3_MAL Rank (before)” value [10] was 1420.
